Measurements reported in patent US7910600B2, “Therapeutic kinase modulators” (Cylene Pharmaceuticals, Inc., priority 2007, dated 2011).

Tests used:
recombinant human CK2 = target: T1, recombinant human CK2 (Homo sapiens, UniProt P68400); assay: Cell-free CK2 assay; format: biochemical; conditions: for inhibition at 0.5 µM: read-out: CK2: % inh 500 nM
T1 construct: purchased Upstate
Description: Modulatory activity of compounds described herein is assessed in vitro in cell-free CK2 assays. These assays are described hereafter.
Test compounds in aqueous solution are added at a volume of 10 microliters, to a reaction mixture comprising 10 microliters Assay Dilution Buffer (ADB; 20mM MOPS, pH 7.2, 25 mM beta-glycerolphosphate, 5 mM EGTA, 1 mM sodium orthovanadate and 1 mM dithiothreitol), 10 microliters of substrate peptide (RRRDDDSDDD (SEQ ID NO:4), dissolved in ADB at a concentration of 1 mM), 10 microliters of recombinant human CK2 (25 ng dissolved in ADB; Upstate). Reactions are initiated by the addition of 10 microliters of ATP Solution (90% 75 mM MgC12, 75 micromolar ATP dissolved in ADB; 10% [γ-^33P]ATP (stock 1 mCi/100 μl; 3000 Ci/mmol (Perkin Elmer) and maintained for 10 minutes at 30 degrees C. The reactions are quenched with 100 microliters of 0.75% phosphoric acid, then transferred to and filtered through a phosphocellulose filter plate (Millipore). After washing each well 5 times with 0.75% phosphoric acid, the plate is dried under vacuum for 5 min and, following the addition of 15 ul of scintillation fluid to each well, the residual radioactivity is measured using a Wallac […].

[1] = system: HCT-116 human colorectal carcinoma cells; assay: Cell proliferation assay (Alamar Blue), HCT-116; format: cell-based; conditions: HCT-116 cell line
Description: (§1) A representative cell-proliferation assay protocol using Alamar Blue dye (stored at 4° C., use 20 ul per well) is described hereafter.
(§2) 96-Well Plate Setup and Compound Treatment
(§3) • a. Split and trypsinize cells. • b. Count cells using hemocytometer. • c. Plate 4,000-5,000 cells per well in 100 μl of medium and seed into a 96-well plate according to the following plate layout. Add cell culture medium only to wells B10 to B12. Wells B1 to B9 have cells but no compound added.
(§4) • d. Add 100 μl of 2× drug dilution to each well in a concentration shown in the plate layout above. At the same time, add 100 μl of media into the control wells (wells B10 to B12). Total volume is 200 μl/well. • e. Incubate four (4) days at 37° C., 5% CO2 in a humidified incubator. • f. Add 20 μl Alamar Blue reagent to each well. • g. Incubate for four (4) hours at 37° C., 5% CO2 in a humidified incubator. • h. Record fluorescence at an excitation wavelength of 544 nm and emission wavelength of 590 nm using a microplate reader.
(§5) In the assays, cells are cultured with a test compound for approximately four days, the dye is then added to the cells and fluorescence of […] dye is detected after approximately four hours. Different types of cells can be utilized in the assays (e.g., HCT-116 human colorectal carcinoma cells, PC-3 human prostatic cancer cells and MiaPaca human pancreatic carcinoma cells).

BxPC3 = assay: Cell proliferation assay (Alamar Blue), BxPC3; format: cell-based; conditions: Homo sapiens, BXPC-3; BxPC3 cell line; read-out: Bx-PC3
Description: as §1, §2, §3, §4, §5

[2] = system: MiaPaca human pancreatic carcinoma cells; assay: Cell proliferation assay (Alamar Blue), MiaPaCa; format: cell-based; conditions: MIA PaCa-2, MiaPaCa cell line
Description: as §1, §2, §3, §4, §5

K562 = assay: Cell proliferation assay (Alamar Blue), K562; format: cell-based; conditions: Homo sapiens; K562 cell line
Description: as §1, §2, §3, §4, §5

MV-4-11 = assay: Cell proliferation assay (Alamar Blue), MV-4-11; format: cell-based; conditions: Homo sapiens, MV4-11; MV-4-11 cell line
Description: as §1, §2, §3, §4, §5

MDA-MB231 = assay: Cell proliferation assay (Alamar Blue), MDA-MB231; format: cell-based; conditions: Homo sapiens, MDA-MB-231; MDA-MB231 cell line
Description: as §1, §2, §3, §4, §5

[3] = system: PC-3 human prostatic cancer cells; assay: Cell proliferation assay (Alamar Blue), PC3; format: cell-based; conditions: PC3 cell line
Description: as §1, §2, §3, §4, §5

T1 sequence (P68400 whole entry): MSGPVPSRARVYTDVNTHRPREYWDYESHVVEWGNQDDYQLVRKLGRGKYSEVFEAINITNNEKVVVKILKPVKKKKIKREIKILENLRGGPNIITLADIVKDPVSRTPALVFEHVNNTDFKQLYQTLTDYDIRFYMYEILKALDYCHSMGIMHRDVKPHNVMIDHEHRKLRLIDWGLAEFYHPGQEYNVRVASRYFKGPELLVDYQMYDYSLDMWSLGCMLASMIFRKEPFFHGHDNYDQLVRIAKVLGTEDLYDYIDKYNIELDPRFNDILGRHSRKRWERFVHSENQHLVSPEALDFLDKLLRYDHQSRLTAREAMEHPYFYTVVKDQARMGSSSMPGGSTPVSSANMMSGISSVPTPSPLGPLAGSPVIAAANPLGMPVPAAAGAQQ
T1 sequence (P67870 whole entry partner): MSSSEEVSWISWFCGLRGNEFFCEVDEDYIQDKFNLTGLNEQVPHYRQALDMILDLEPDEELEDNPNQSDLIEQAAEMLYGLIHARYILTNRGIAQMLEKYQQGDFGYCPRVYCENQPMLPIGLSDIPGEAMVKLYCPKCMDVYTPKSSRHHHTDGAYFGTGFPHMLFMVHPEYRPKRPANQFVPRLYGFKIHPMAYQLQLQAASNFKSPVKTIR

| Structure (SMILES) | IC50 (recombinant human CK2) | inhibition at 0.5 µM (recombinant human CK2) | IC50 [1] | IC50 (BxPC3) | IC50 [2] | IC50 (K562) | IC50 (MV-4-11) | IC50 (MDA-MB231) | IC50 [3] |
| --- | --- | --- | --- | --- | --- | --- | --- | --- | --- |
| CC(=O)Nc1cccc(-c2nc3cc(C(=O)NCCN4CCCC4)ccc3c3cnccc23)c1 | 0.144 µM | 89% | > 10 µM |  |  |  |  |  |  |
| Cn1cc(-c2nc3cc(C(=O)O)ccc3c3cnccc23)cn1 | 0.004 µM | 98% | > 10 µM | > 10 µM | > 10 µM | > 10 µM | > 10 µM | > 10 µM |  |
| Cn1cc(-c2nc3cc(C(=O)NC4CC4)ccc3c3cnccc23)cn1 |  | -15% | 1 µM |  |  |  | 2.7 µM |  |  |
| CN1CCN(C(=O)c2ccc3c(c2)nc(-c2ccccc2)c2ccncc23)CC1 |  | 57% | > 10 µM |  |  | > 10 µM | > 10 µM |  |  |
| Fc1ccc2c(c1)nc(-c1ccncc1)c1ccncc12 |  | -37% |  |  |  |  |  |  |  |
| COc1cccc(F)c1-c1nc2cc(C(=O)O)ccc2c2cnccc12 |  | 68% | > 10 µM |  | > 10 µM | > 10 µM |  |  | > 10 µM |
| COC(=O)c1ccc2c(c1)nc(-c1cnn(C)c1)c1ccncc12 [Methyl 5-(1-methyl-1H-pyrazol-4-yl)benzo[c][2,6]naphthyridine-8-carboxylate] |  | -49% | 2.5 µM |  |  | > 10 µM | > 10 µM |  |  |
| COC(=O)c1ccc2c(c1)nc(-c1cscc1C)c1ccncc12 |  | 4% |  |  |  |  |  |  |  |
| Clc1ccc(-c2nc3ccccc3c3cnccc23)cc1 |  | -5% | > 10 µM |  | > 10 µM | > 10 µM |  |  | > 10 µM |
| Nc1cccc(-c2nc3cc(C(=O)O)ccc3c3cnccc23)c1 | 0.027 µM | 97% | > 10 µM | > 10 µM | > 10 µM |  | > 10 µM | > 10 µM |  |
| Cn1cc(-c2nc3cc(C(N)=O)ccc3c3cnccc23)cn1 |  | 7% | > 10 µM |  |  | > 10 µM | 2.9 µM |  |  |
| Fc1ccc2c(c1)nc(-c1ccccc1)c1ccncc12 |  | -51% |  |  |  |  |  |  |  |
| Cc1ccccc1-c1nc2cc(C(=O)O)ccc2c2cnccc12 |  | 76% | > 10 µM |  | > 10 µM | > 10 µM |  |  | > 10 µM |
| CCCNC(=O)c1ccc2c(c1)nc(-c1ccccc1)c1ccncc12 |  | -26% | > 10 µM |  |  | > 10 µM | > 10 µM |  |  |
| O=C(O)c1ccc2c(c1)nc(-c1ccccc1OC(F)(F)F)c1ccncc12 |  | 23% | > 10 µM |  | > 10 µM |  |  |  | > 10 µM |
| Clc1cccc(-c2nc3ccccc3c3cnccc23)c1 |  | -17% | > 10 µM |  | > 10 µM | > 10 µM |  |  | > 10 µM |
| CN1CCCN(C(=O)c2ccc3c(c2)nc(-c2cccc(N)c2)c2ccncc23)CC1 |  | -21% | > 10 µM |  |  |  |  |  |  |
| CCCNC(=O)c1ccc2c(c1)nc(-c1cnn(C)c1)c1ccncc12 |  | -21% | > 10 µM |  |  | > 10 µM | > 10 µM |  |  |
| COC(=O)c1ccc2c(c1)nc(-c1ccccc1)c1ccncc12 [Methyl 5-phenylbenzo[c][2,6]naphthyridine-8-carboxylate] |  | -34% | 2.9 µM |  |  | > 10 µM | > 10 µM |  |  |
| NC(=O)c1ccc2c(c1)nc(-c1ccccc1)c1ccncc12 |  | 27% | > 10 µM |  |  | > 10 µM | 1.4 µM |  |  |
| Nc1cccc(-c2nc3cc(C(=O)NCCN4CCCC4)ccc3c3cnccc23)c1 |  | 56% | > 10 µM |  |  |  |  |  |  |
| Cc1ccccc1-c1nc2ccccc2c2cnccc12 |  | -15% | > 10 µM |  | > 10 µM | > 10 µM |  |  | > 10 µM |
| O=C(O)c1ccc2c(c1)nc(-c1ccc(Cl)s1)c1ccncc12 |  | 99% |  |  |  |  |  |  |  |
